The values below come from ChEMBL document CHEMBL3991601, “The target landscape of clinical kinase drugs” (Science, 2017).

Assay [1] concerns the target Ras-related protein Rab-6A (Homo sapiens, UniProt P20340).
The target of assay [2] is T1, Long-chain-fatty-acid--CoA ligase 5 (Homo sapiens, UniProt Q9ULC5).
T1 sequence (Q9ULC5 whole entry): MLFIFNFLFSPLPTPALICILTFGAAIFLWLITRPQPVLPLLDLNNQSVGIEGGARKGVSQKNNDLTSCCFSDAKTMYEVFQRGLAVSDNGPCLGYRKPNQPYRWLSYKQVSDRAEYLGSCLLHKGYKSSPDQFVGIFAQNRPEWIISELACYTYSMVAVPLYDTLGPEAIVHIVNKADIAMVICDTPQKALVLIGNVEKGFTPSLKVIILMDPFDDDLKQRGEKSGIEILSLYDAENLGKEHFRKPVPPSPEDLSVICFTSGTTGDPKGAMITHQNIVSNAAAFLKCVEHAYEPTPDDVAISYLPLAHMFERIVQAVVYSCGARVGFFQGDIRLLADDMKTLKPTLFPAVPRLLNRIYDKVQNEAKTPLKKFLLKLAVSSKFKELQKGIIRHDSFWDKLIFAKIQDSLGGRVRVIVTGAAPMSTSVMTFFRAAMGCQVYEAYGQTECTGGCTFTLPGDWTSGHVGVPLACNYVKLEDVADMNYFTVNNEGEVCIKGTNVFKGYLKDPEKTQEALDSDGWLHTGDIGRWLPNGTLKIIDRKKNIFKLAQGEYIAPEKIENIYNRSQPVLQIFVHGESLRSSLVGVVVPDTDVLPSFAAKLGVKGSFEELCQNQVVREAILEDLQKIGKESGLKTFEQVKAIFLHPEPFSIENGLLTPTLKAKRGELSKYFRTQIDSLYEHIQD

In assay [3] the target is Serine/threonine-protein kinase MRCK gamma (Homo sapiens, UniProt Q6DT37).
In assay [4] the target is Aurora kinase B (Homo sapiens, UniProt Q96GD4).
Assay [5] deals with Myosin light chain kinase, smooth muscle (Homo sapiens, UniProt Q15746).
The target in assay [6] is Fibroblast growth factor receptor 1 (Homo sapiens, UniProt P11362).
Assay [7] has as its target Cyclin-dependent kinase 3 (Homo sapiens, UniProt Q00526).
Assay [8] addresses T2, Tyrosine--tRNA ligase, cytoplasmic (Homo sapiens, UniProt P54577).
T2 sequence (P54577 whole entry): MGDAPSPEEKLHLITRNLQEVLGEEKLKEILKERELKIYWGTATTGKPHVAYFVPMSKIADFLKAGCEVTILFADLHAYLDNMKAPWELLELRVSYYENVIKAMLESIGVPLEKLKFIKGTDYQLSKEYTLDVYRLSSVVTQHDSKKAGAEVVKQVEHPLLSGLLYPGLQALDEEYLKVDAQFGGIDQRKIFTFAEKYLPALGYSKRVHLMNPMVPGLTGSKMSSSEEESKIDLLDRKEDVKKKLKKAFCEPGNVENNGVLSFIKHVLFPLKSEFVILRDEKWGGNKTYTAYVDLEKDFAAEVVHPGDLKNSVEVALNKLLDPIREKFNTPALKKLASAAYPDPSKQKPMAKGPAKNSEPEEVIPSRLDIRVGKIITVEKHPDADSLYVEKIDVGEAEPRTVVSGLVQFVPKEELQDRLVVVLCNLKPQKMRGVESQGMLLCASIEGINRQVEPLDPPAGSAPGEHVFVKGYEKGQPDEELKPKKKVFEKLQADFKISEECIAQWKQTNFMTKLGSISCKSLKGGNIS

Assay [9] concerns the target Atypical kinase COQ8A, mitochondrial (Homo sapiens, UniProt Q8NI60).
Assay [10] deals with T3, cGMP-dependent protein kinase 1 (Homo sapiens, UniProt Q13976).
T3 sequence (Q13976 whole entry): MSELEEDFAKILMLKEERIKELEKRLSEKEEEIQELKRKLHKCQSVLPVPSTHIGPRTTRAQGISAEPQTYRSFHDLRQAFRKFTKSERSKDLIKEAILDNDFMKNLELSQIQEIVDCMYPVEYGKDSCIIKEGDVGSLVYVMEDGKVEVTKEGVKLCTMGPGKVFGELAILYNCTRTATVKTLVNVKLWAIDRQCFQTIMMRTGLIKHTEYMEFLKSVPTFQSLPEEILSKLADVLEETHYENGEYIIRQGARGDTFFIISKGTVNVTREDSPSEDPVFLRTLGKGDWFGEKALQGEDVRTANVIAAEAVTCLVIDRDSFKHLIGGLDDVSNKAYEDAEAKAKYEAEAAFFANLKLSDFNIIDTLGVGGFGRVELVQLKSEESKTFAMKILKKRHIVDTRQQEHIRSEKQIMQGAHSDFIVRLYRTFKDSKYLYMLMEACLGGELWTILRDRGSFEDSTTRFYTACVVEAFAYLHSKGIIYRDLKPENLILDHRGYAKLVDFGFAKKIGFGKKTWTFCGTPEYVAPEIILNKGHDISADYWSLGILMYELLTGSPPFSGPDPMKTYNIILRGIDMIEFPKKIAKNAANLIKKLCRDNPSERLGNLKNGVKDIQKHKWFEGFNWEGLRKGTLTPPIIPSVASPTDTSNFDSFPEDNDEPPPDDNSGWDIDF

Assay [11] concerns the target T4, Beta-adrenergic receptor kinase 1 (Homo sapiens, UniProt P25098).
T4 sequence (P25098 whole entry): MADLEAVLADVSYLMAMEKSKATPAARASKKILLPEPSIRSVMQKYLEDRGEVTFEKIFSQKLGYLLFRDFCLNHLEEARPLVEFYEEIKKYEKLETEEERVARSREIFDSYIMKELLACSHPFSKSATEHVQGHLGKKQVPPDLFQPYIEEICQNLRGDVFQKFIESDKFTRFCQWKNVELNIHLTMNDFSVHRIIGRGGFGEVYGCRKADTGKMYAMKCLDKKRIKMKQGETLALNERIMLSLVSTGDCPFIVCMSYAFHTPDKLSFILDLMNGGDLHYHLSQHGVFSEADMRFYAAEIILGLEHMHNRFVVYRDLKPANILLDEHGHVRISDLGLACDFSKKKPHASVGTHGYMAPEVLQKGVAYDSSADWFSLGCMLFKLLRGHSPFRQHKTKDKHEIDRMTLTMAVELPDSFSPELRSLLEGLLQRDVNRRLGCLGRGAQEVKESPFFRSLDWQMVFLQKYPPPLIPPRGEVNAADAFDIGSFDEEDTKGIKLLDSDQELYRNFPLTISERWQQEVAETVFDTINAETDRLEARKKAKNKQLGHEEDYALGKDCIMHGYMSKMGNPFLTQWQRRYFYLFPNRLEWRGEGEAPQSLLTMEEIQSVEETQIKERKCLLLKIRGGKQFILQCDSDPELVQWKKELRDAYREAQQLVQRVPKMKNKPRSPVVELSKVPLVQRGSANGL

Active and inactive are the calls of the source.
Note: in the data inactive means no Kd found up to 30 µM.

Sequence of Ras-related protein Rab-6A (P20340 whole entry): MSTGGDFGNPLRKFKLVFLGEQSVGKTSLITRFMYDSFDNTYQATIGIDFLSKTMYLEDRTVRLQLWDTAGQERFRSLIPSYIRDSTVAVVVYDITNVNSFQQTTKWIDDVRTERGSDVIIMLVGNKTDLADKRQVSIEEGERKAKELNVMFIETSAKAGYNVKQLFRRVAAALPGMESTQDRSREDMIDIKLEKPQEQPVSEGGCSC
Sequence of Cyclin-dependent kinase 3 (Q00526 whole entry): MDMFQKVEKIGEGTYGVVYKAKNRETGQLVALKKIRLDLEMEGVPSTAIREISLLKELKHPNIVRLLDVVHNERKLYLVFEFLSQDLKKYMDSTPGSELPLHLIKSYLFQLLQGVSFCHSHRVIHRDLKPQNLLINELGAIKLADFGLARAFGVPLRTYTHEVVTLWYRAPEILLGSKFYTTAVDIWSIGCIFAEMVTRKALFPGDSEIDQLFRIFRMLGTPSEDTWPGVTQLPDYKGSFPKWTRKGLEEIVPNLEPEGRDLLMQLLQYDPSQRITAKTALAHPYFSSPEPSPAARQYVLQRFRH
Sequence of Aurora kinase B (Q96GD4 whole entry): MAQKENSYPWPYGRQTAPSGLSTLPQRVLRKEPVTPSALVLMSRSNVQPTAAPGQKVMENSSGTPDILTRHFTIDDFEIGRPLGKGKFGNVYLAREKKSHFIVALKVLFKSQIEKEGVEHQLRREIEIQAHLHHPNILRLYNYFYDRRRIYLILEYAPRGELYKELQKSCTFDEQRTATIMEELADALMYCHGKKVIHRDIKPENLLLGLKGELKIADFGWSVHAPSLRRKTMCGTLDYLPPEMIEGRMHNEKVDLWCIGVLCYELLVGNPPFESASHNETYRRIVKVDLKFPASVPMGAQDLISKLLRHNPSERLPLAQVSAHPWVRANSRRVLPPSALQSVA
Sequence of Serine/threonine-protein kinase MRCK gamma (Q6DT37 whole entry): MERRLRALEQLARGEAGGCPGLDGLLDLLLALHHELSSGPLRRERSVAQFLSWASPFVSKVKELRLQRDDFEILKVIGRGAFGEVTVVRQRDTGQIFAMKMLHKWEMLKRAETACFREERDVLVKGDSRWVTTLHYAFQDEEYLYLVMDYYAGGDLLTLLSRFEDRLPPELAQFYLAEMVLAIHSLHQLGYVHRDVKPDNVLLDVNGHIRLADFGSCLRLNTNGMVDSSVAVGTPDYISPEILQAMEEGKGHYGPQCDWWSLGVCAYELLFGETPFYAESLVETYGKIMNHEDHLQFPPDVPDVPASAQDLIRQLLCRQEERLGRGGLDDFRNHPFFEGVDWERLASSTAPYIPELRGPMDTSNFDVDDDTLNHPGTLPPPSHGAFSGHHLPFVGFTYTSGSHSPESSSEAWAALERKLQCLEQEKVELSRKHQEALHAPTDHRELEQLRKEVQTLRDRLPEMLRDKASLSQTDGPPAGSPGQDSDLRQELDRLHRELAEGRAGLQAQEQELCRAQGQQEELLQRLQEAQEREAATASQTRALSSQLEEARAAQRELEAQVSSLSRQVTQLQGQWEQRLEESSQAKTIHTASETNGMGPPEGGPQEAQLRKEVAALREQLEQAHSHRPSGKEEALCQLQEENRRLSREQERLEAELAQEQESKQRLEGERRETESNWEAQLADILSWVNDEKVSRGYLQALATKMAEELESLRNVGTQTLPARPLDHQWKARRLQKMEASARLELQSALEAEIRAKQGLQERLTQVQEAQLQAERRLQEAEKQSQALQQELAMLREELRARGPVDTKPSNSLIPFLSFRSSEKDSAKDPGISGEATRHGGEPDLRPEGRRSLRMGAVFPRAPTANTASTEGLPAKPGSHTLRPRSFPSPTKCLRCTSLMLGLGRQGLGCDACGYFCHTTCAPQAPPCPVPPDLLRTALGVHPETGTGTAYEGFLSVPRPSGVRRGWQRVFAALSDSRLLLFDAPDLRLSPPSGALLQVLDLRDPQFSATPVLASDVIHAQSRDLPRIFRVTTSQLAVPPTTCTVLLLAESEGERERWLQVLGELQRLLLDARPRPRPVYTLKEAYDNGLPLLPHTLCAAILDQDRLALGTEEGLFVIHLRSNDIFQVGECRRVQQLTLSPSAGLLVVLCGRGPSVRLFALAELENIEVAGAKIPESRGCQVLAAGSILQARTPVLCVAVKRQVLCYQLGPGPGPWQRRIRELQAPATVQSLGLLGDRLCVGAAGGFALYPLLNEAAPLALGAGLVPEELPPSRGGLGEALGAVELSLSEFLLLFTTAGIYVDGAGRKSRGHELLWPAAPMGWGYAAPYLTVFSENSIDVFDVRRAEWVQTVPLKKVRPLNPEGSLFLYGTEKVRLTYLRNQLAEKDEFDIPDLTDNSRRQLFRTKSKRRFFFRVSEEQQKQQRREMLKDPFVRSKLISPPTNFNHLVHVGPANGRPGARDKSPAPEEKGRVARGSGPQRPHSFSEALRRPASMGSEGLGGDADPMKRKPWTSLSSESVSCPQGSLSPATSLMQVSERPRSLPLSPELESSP
Sequence of Myosin light chain kinase, smooth muscle (Q15746 whole entry): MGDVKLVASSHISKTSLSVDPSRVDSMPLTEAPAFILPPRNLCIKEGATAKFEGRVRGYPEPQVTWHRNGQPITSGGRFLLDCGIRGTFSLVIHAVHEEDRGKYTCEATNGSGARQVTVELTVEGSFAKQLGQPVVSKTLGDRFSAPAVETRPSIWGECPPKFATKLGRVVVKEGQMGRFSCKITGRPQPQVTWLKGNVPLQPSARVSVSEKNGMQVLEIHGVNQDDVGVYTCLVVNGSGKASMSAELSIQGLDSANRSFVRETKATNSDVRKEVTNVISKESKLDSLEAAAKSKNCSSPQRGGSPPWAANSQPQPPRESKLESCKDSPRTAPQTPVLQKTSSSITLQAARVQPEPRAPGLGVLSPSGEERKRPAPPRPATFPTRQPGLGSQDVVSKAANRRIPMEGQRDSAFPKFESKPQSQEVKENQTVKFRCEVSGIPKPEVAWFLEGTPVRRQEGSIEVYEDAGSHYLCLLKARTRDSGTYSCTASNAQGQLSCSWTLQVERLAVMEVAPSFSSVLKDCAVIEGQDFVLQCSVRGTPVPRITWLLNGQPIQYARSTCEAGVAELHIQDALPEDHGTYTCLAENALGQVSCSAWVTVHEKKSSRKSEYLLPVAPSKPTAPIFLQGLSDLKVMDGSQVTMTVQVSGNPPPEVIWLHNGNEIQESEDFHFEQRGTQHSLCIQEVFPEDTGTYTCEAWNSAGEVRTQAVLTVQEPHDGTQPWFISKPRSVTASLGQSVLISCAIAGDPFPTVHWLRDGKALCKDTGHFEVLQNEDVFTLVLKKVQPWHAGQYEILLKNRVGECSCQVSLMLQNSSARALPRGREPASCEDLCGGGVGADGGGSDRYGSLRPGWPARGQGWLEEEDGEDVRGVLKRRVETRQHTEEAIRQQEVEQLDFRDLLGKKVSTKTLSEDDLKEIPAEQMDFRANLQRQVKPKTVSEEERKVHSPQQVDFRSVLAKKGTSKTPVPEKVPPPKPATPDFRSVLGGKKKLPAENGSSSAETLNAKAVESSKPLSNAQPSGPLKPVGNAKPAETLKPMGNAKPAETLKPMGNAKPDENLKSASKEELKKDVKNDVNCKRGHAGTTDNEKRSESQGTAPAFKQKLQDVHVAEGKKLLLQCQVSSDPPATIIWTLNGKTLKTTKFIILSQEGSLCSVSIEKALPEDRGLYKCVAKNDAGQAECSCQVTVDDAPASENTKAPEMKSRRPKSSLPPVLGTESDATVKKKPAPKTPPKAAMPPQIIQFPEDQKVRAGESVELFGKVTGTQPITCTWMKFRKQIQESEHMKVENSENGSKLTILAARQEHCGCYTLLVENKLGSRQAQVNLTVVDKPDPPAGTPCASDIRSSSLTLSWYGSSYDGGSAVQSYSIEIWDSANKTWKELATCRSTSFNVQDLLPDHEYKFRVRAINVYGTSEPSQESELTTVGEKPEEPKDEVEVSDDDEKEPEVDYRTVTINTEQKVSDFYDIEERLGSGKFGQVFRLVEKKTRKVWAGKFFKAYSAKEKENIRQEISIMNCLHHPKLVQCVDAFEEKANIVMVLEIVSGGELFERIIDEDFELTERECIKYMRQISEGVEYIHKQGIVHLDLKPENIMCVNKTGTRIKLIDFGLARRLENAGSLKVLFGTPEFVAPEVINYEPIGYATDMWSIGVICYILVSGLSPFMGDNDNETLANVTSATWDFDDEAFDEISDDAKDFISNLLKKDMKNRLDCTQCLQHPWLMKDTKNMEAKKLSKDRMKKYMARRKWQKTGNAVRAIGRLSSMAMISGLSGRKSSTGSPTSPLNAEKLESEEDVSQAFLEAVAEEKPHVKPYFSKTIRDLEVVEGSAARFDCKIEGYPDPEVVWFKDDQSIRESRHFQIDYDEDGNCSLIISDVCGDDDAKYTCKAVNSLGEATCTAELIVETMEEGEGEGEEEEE
Sequence of Atypical kinase COQ8A, mitochondrial (Q8NI60 whole entry): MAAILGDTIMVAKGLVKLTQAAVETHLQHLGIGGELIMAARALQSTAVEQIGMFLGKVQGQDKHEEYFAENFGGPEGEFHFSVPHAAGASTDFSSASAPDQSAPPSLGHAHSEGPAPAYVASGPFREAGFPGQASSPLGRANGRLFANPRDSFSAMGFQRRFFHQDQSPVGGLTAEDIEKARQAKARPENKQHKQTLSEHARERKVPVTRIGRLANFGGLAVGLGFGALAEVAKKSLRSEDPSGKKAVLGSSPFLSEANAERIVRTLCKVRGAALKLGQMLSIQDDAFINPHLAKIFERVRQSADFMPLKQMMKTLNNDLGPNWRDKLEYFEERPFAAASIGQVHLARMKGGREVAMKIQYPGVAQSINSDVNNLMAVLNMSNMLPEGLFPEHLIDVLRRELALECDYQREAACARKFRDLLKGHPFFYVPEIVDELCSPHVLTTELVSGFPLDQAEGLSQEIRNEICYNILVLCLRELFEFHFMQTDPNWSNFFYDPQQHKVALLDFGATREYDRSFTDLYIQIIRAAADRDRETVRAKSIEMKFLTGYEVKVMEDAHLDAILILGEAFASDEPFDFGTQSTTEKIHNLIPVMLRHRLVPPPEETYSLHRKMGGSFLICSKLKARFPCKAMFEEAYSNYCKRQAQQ

As usually defined, the Kd is the equilibrium constant for the complex coming apart. Take `C[C@@H]1COC(Nc2ccc3ncnc(Nc4ccc(OCc5nccs5)c(Cl)c4)c3c2)=N1` [VARLITINIB]: the Kd in assay [1], in assay [2], in [3], in assay [4], in assay [5] and in assay [6] was > 30 µM (inactive) each time. Moreover, the Kd in [7], in [8], in assay [9], in [10] and in [11] was > 30 µM (inactive) throughout.

Regarding `C#Cc1cccc(Nc2ncnc3cc4c(cc23)OCCOCCOCCO4)c1` [ICOTINIB], the Kd in assay [1], in assay [2], in assay [3], in assay [4], in [5] and in [6] was > 30 µM (inactive) in each case. The Kd in assay [7], in assay [8], in assay [9], in assay [10] and in assay [11] was > 30 µM (inactive) throughout.

In the case of `CC1(COc2ccc3c(c2)ncn3-c2ccc3cccc(N4CCC(N)CC4)c3n2)COC1` [CRENOLANIB], the Kd in assay [1], in assay [2], in assay [3], in [4], in [5] and in assay [6] was > 30 µM (inactive) throughout. The Kd in assay [7] is 1.07 µM (active); in [8] it was 3.32 µM; in [9], > 30 µM (inactive); in [10] it was > 30 µM (inactive); in assay [11], > 30 µM (inactive).

Consider `COc1cc2ncnc3c2cc1OCCCCCN(C)Cc1ccc(Br)cc1N3` [JNJ-26483327], for which the Kd in assay [1], in [2], in assay [3], in [4], in [5] and in assay [6] was > 30 µM (inactive) in each case. For the same compound, the Kd in assay [7], in [8], in [9], in assay [10] and in assay [11] was > 30 µM (inactive) each time.

`FC(F)(F)c1ccc(CNc2ccc(Cc3c[nH]c4ncc(Cl)cc34)cn2)cn1` [PEXIDARTINIB]: the Kd in [1], in assay [2], in assay [3], in assay [4], in assay [5] and in [6] was > 30 µM (inactive) throughout. Also, the Kd in assay [7], in [8], in assay [9], in assay [10] and in assay [11] was > 30 µM (inactive) throughout.

Consider `COc1ccc2c(OCc3nnc4ccc(-c5ccccc5)nn34)ccnc2c1` [AMG-208], for which the Kd in assay [1], in [2], in assay [3], in assay [4], in [5] and in assay [6] was > 30 µM (inactive) in each case. Further, the Kd in [7], in assay [8], in assay [9], in assay [10] and in assay [11] was > 30 µM (inactive) throughout.

On to `Cc1cc(-c2cc(OC(=O)c3ccccc3)ccc2Cl)cc2nnc(Nc3ccc(OCCN4CCCC4)cc3)nc12` [TG100-801], for which the Kd in assay [1], in [2], in assay [3], in assay [4], in assay [5] and in assay [6] was > 30 µM (inactive) throughout. For the same compound, the Kd in assay [7], in [8], in assay [9], in assay [10] and in assay [11] was > 30 µM (inactive) throughout.

As to `O=C(NC[C@H](O)CO)c1ccncc1Nc1ccc(I)cc1F` [PIMASERTIB], the Kd in assay [1], in assay [2], in [3], in assay [4], in [5] and in [6] was > 30 µM (inactive) in each case. Besides, the Kd in assay [7], in assay [8], in assay [9], in assay [10] and in [11] was > 30 µM (inactive) throughout.

Regarding `c1cc(OCCN2CCCCC2)cc(-c2n[nH]c3ccc(-c4nc[nH]n4)cc23)c1` [CC-401], the Kd in assay [1], in assay [2], in assay [3], in assay [4], in [5] and in assay [6] was > 30 µM (inactive) throughout. In addition, the Kd in [7], in assay [8], in assay [9], in assay [10] and in assay [11] was > 30 µM (inactive) each time.
